Entries after “also recorded” stand apart in the source; their conditions may differ.
Assays:
[1] = target: T1, SETD8 (Homo sapiens, UniProt Q9NQR1); test: MALDI-TOF MS methylation assay of H4K20 peptides with SETD8; type: biochemical; conditions: peptide 100 µM, SETD8 10 µM, SAM 1 mM, 1 h and 5 h, 37 °C, MALDI-MS
T1 construct: His6 (N); made in house; host or cells: E. coli BL21 (DE3)pLysS-rosetta
T1 sequence (Q9NQR1 1-393): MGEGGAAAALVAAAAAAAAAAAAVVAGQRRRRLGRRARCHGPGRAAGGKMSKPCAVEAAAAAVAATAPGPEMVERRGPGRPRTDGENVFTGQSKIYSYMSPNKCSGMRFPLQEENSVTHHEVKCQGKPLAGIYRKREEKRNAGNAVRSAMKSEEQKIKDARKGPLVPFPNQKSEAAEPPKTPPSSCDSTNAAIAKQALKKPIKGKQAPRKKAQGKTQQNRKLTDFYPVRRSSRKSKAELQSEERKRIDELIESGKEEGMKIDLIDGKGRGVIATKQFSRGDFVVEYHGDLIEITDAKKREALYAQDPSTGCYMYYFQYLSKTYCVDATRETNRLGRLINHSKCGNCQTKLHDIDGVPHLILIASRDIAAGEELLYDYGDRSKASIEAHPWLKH
Method: MALDI-MS methyltransferases activity experiments were performed using a Bruker instrument in the reflectron positive mode. […] In case of G9a and GLP, similar conditions were used, except (500 µM) of SAM was added to the reaction mixture. Samples were incubated in an Eppendorf vial 1.5 mL using thermomixer for 1 h at 37 °C. A 5 µL aliquot of the solution was mixed with 5 µL of MeOH, after which 5 µL of this mixture was mixed with 5 µL of α-cyano-4-hydroxycinamic acid matrix (CHCA, 5 mg/mL in 125:125 µL acetonitrile/water). The spots were placed on a stainless steel MALDI plate (MS 96 target ground steel BC of Bruker, Germany). The mass corresponding to one monomethylation observed as +14 Da, dimethylation observed as +28 Da and trimethylation observed as +42 Da. The enzymatic activity was determined by taking the peak areas of each methylation state, including all isotopes and adducts, and was annotated using FlexAnalysis software (Bruker Daltonics, Germany). […] Methylated peptide substrates were repeated five times and the unmethylated substrates were triplicated. Sequences of the examined peptides are given in (Supplementary Table 1).

[2] = tested on: SETD7; test: MALDI-TOF MS methylation assay of H3K4 peptides with SETD7; type: biochemical, human; conditions: peptide 100 µM, SETD7 2 µM, SAM 200 µM, 1 h, 37 °C
Method: (§1) MALDI-MS methyltransferases activity experiments were performed using a Bruker instrument in the reflectron positive mode. For regular methyltransferase standard conditions experiment which carried out in 30 µL total volume, the mixture contains peptide (100 µM), SAM (200 µM), SETD8 or SETD7 (2 µM), in assay buffer 50 mM Tris at optimal pH 8.0. In case of G9a and GLP, similar conditions were used, except (500 µM) of SAM was added to the reaction mixture. Samples were incubated in an Eppendorf vial 1.5 mL using thermomixer for 1 h at 37 °C. A 5 µL aliquot of the solution was mixed with 5 µL of MeOH, after which 5 µL of this mixture was mixed with 5 µL of α-cyano-4-hydroxycinamic acid matrix (CHCA, 5 mg/mL in 125:125 µL acetonitrile/water). The spots were placed on a stainless steel MALDI plate (MS 96 target ground steel BC of Bruker, Germany). The mass corresponding to one monomethylation observed as +14 Da, dimethylation observed as +28 Da and trimethylation observed as +42 Da. The enzymatic activity was determined by taking the peak areas of each methylation state, including all isotopes and adducts, and was annotated using FlexAnalysis software (Bruker Daltonics, Germany). […] Methylated peptide substrates were repeated five times and the unmethylated substrates were triplicated. Sequences of the examined peptides are given in (Supplementary Table 1).

[3] = target: T2, G9a (Homo sapiens, UniProt Q96KQ7); test: MALDI-TOF MS methylation assay of H3K9 peptides with G9a; type: biochemical; conditions: peptide 100 µM, G9a 2 µM, SAM 500 µM, 1 h, 37 °C
T2 construct: His6 (N); made in house; host or cells: E. coli BL21 (DE3)pLysS-rosetta
T2 sequence (Q96KQ7 1-1210): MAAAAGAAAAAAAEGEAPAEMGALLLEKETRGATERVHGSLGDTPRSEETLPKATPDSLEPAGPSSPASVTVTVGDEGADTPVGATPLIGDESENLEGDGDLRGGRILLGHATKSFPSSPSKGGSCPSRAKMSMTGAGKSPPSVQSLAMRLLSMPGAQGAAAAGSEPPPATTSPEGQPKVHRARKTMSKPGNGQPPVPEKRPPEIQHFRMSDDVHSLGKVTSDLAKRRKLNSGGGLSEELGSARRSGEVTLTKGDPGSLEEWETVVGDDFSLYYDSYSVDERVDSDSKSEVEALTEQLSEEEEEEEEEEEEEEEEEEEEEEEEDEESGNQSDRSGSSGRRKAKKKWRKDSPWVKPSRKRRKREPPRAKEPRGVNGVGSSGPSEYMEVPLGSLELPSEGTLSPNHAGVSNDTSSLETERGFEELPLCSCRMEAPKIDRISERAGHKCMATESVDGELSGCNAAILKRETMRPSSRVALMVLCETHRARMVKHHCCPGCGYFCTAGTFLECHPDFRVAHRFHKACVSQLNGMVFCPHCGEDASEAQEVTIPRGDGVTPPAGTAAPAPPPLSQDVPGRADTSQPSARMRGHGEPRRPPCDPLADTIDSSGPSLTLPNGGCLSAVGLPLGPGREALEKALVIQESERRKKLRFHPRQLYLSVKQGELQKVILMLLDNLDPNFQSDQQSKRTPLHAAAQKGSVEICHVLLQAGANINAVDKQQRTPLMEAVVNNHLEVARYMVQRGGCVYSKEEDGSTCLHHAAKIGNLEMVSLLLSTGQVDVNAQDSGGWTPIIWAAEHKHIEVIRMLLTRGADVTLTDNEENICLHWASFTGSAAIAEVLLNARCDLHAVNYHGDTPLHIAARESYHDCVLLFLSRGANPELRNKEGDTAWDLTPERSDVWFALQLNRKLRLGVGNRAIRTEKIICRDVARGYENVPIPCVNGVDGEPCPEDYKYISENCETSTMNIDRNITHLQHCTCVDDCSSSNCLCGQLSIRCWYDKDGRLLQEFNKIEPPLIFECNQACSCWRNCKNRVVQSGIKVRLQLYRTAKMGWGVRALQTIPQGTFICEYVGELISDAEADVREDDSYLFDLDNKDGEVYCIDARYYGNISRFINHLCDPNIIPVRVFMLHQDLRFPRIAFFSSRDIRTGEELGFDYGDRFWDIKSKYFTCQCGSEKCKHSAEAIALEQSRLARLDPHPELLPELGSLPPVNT
Method: as §1

[4] = target: T3, GLP (Homo sapiens, UniProt Q9H9B1); test: NMR assay of GLP-catalyzed methylation of H3K9 peptides; type: biochemical; conditions: peptide 400 µM, GLP 8 µM, SAM 2 mM, 50 mM Tris-d11.HCl pD 8.0, 1 h, 37 °C
T3 construct: His6 (N); made in house; host or cells: E. coli BL21 (DE3)pLysS-rosetta
T3 sequence (Q9H9B1 1-1298): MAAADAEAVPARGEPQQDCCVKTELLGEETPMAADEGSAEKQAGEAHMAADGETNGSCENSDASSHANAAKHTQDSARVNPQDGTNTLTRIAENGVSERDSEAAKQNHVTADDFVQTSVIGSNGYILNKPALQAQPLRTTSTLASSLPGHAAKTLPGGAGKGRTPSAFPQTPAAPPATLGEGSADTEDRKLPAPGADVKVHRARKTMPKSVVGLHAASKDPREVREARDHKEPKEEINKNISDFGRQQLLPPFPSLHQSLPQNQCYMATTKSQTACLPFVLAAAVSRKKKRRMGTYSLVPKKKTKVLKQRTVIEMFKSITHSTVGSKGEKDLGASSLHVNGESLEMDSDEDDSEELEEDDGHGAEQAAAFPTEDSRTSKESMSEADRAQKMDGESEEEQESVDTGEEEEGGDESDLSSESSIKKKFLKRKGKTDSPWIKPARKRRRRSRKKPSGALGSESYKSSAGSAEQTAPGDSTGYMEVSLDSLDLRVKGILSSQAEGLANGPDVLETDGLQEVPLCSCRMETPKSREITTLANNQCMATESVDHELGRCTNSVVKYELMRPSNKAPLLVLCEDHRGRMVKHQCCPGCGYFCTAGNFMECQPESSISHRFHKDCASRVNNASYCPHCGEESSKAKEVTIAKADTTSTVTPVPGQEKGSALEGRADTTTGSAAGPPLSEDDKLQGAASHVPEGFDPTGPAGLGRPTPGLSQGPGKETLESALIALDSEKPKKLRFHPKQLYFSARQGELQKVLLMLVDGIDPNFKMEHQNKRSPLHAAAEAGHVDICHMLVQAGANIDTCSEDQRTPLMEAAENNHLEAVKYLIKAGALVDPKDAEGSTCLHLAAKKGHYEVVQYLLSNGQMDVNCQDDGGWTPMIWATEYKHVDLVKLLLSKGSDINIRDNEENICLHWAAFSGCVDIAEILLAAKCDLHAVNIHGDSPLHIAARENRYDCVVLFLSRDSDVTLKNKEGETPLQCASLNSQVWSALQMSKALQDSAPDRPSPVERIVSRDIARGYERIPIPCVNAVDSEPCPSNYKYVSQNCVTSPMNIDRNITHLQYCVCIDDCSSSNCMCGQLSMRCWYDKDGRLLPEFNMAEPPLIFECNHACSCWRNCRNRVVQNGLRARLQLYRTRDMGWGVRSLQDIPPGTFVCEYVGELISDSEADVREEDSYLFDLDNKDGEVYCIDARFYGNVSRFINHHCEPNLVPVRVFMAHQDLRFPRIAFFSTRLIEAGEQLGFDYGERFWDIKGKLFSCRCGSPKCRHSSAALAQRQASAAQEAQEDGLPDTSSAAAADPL

[5] = target: T3, GLP; test: MALDI-TOF MS methylation assay of H3K9 peptides with GLP; type: biochemical; conditions: peptide 100 µM, GLP 10 µM, SAM 1 mM, 5 h, 37 °C, MALDI-MS
Method: as §1, with “Samples were incubated in an Eppendorf vial 1.5 mL using thermomixer for 1 h at 37 °C.” left out

Row | SETD8-catalyzed methylation, result in words, increased SETD8/SAM and prolonged incubation [1] | G9a-catalyzed methylation, result in words [3] | Substance | SETD7-catalyzed methylation, result in words [2] | also measured
1 | lack of methylation |  | GGAKRHR(F3a20)VLRDNIQ [H4F3a20, H4K20 peptide bearing meta-aminophenylalanine at position 20] |  | 
2 |  |  | ART(Ap4)QTARKSTGGKA [H3AP4, H3K4 peptide bearing pyridylalanine at position 4] | lack of methylation | 
3 |  | trimethylation | ARTKQTARKSTGGK [H3 1-14K9, reference compound] |  | 
4 |  | lack of methylation | ARTKQTAR(Y9)STGGKA (ARTKQTARYSTGGKA) [H3Y9] |  | GLP-catalyzed methylation by 1H NMR / 1H-13C HSQC, result in words [4]: not methylated; GLP-catalyzed methylation, result in words, increased GLP/SAM [5]: lack of methylation
5 | lack of methylation |  | GGAKRHR(Y20)VLRDNIQ [H4Y20, H4K20 peptide bearing tyrosine at position 20] |  | 
6 |  |  | ART(F3a4)QTARKSTGGKA [H3F3a4, H3K4 peptide bearing meta-aminophenylalanine at position 4] | lack of methylation | 
7 |  |  | ARTK^4QTARKSTGGKA [H3K4, reference compound] | formation of monomethylated H3K4; also recorded: monomethylation | 
8 | lack of methylation |  | GGAKRHR(Ap20)VLRDNIQ [H4AP20, H4K20 peptide bearing pyridylalanine at position 20] |  | 
9 |  | lack of methylation | ARTKQTAR(Ap9)STGGKA [H3AP9] |  | GLP-catalyzed methylation by 1H NMR / 1H-13C HSQC, result in words [4]: not methylated; GLP-catalyzed methylation, result in words, increased GLP/SAM [5]: lack of methylation
10 |  |  | ART(Kba4)QTARKSTGGKA [H3Kba4, H3K4 peptide bearing benzylamine lysine analog at position 4] | lack of methylation | 
11 |  | lack of methylation | ARTKQTAR(F4a9)STGGKA [H3F4a9] |  | GLP-catalyzed methylation by 1H NMR / 1H-13C HSQC, result in words [4]: not methylated; GLP-catalyzed methylation, result in words, increased GLP/SAM [5]: lack of methylation
12 | lack of methylation |  | GGAKRHR(F4a20)VLRDNIQ [H4F4a20, H4K20 peptide bearing para-aminophenylalanine at position 20] |  | 
13 |  |  | ART(Y4)QTARKSTGGKA [H3Y4, H3K4 peptide bearing tyrosine at position 4] | lack of methylation | 

Source: publication PMC7048932, “Examining sterically demanding lysine analogs for histone lysine methyltransferase catalysis” (Scientific Reports, 2020)
